Laboratory results taken from article PMC4399838, “Antipsychotic-Like Effect of the Muscarinic Acetylcholine Receptor Agonist BuTAC in Non-Human Primates” (PLoS ONE, 2015).

Assays:
[1] = biological target: T1, human M5 muscarinic receptor (Homo sapiens, UniProt P08912); experiment: GTP-γ-[35S] binding, antibody capture SPA (agonist and antagonist mode); format: biochemical
T1 construct: purchased PerkinElmer Life and Analytical Sciences, Boston, MA
T1 sequence (P08912 1-532): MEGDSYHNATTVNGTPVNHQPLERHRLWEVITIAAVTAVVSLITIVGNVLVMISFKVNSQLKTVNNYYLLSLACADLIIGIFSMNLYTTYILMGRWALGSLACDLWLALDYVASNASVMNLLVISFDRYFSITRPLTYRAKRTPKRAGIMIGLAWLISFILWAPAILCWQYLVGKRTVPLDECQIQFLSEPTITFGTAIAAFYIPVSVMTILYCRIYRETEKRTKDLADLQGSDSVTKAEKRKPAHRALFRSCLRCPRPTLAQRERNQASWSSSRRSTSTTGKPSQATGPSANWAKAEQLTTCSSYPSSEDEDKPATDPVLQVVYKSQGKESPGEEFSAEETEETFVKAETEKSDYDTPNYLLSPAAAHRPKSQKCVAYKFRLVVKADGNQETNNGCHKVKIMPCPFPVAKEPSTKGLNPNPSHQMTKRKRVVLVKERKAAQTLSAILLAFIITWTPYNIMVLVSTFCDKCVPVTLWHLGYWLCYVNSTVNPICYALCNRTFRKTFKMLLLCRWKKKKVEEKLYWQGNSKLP
Method: The antibody capture scintillation proximity technique previously described by DeLapp et al was used in a 96-well plate to determine GTP-γ-[35S] binding. One hundred μl (20–40 fmol/well) of membrane preparation from CHO cells that stably express the human M1-M5 muscarinic receptors (PerkinElmer Life and Analytical Sciences, Boston, MA) were incubated with varying concentration of test compound (final concentrations from 50pM to 1μM) for 30 min. One μM final concentration of GDP was added to M2 and M4 receptor membranes before incubation. […] (500 pM final concentration; Perkin Elmer Life and Analytical Sciences) was added to each well followed by 30 min of incubation. […] An anti-Gαq/11 antibody was used for the M1-, M3-, and M5 membranes, whereas an anti-Gαi-3 antibody was used for the M2- and M4 membranes (Eli Lilly and Company, Indianapolis, IN). […] By use of a Wallac MicroBeta TriLux scintillation counter (PerkinElmer), the plates were centrifuged for 10 min at 700 × g and counted for 1 min per well. The incubations took place at room temperature in GTP-binding assay buffer (20 mM Hepes, 100 mm NaCl, 5 mM MgC12, pH 7.4). The data were analyzed by use of nonlinear regression for a sigmoidal concentration response curve (GraphPad Prism v. 4.0). Data were normalized to a full agonist response (100 μM oxotremorine-M). […] The antagonist percent inhibition data were normalized to data generated with an EC90 concentration of acetylcholine. The mean relative EC50, IC50, and %Emax, and pKi values were calculated as a mean of at least three independent experiments±SEM. In order to obtain relevant comparisons between subtypes, the experimental system is routinely calibrated with reference agonists (oxotremorine-M, pilocarpine, MCN-A343) to measure full and partial agonism as well as to ensure that the system is not under- or over-reporting functional efficacies. The radioligand binding assays have earlier been described.

[2] = system: antipsychotic-naïve Cebus Apella monkeys; experiment: d-Amphetamine-induced behaviour (unrest, stereotypies, arousal), video rating; format: in vivo; details: d-amphetamine 0.5 mg/kg
Method: Seven male Cebus Apella monkeys were used for evaluation the anti-amphetamine effect and the side effect profile of BuTAC. These monkeys were never before administered antipsychotics and had never experienced EPS, but had previously been administered amphetamine. For further evaluation of the EPS potential of BuTAC, the compound was tested in four male and female monkeys, all sensitized to drug-induced EPS by earlier chronic treatment with classical antipsychotic drugs.
All monkeys received all treatments with at least one week between tests and thus served as their own control. To avoid extended physical contact with the experimenter, the cages were reduced in sized by moving the back wall of the cage closer to the front wall to lightly immobilize the monkey while injecting the test substance in the thigh. This was done at 9 am at test days. After the appropriate pre-treatment time, the monkeys were videotaped in their cages at predefined time points after drug injection.
The rated primate behaviours and symptoms were the following: unrest, stereotypy, arousal, sedation and bradykinesia (Table 1). All monkeys were videotaped in 90-sec. sessions at specific time points throughout the test sessions. The videotapes were rated for amphetamine-induced behaviours and EPS by two experienced raters blinded to the treatment of the animal by means of a rating scale adapted from Peacock et al. and previously described by Andersen et al. (Table 1). In case of any discrepancy between the two ratings, the recording in question was re-evaluated and a rating agreed upon. The monkeys were videotaped at t = 30, 60, 90, 135, 150, 165, 180, 240, 300 min after BuTAC (or vehicle) administration. For the combination studies, d-amphetamine was injected at t = 120 min. Oral dyskinesia was measured in counts per 90 sec. The severity of other behaviours and symptoms were rated on a scale ranging from 0 (not present) to 6 (extreme presence).
For evaluation of anti-amphetamine effects, BuTAC was tested in doses of 0.001, 0.003, 0.01 mg/kg in combination with 0.5 mg/kg of d-amphetamine. BuTAC or peanut oil vehicle was injected s.c. at approximately 9 a.m. Pre-treatment time before s.c. injection of amphetamine was 120 min. For evaluation of side effects, BuTAC was tested alone at doses of 0.001, 0.003 and 0.01 mg/kg in antipsychotic-naïve monkeys and at doses of 0.003 and 0.01 mg/kg in monkeys sensitized to extrapyramidal side effects (EPS) by earlier long-term treatment with first generation antipsychotics. […] None of the animals were sacrificed.
Data from the experiments where BuTAC was administered alone collected at t = 60, 180, 300 min are presented. For the d-amphetamine / BuTAC study, data collected at t(amp) = 60, 120 and 180 min (t = 180, 240, 300 min) are reported. Data were analyzed for overall treatment effects at each time point by means of the non-parametric Friedman’s test for repeated measures. The Student Newman-Keuls comparison procedure was used to analyze for specific dose effects. For all tests, the accepted level of significance was p<0.05.

[3] = BuTAC 0.003 mg/kg s.c., at 180 min
[4] = BuTAC 0.01 mg/kg s.c., at 120 and 180 min

SMILES | EC50 [1] [nM] | Emax [1] [%] | IC50 ([1]; antagonist mode against EC90 of agonist, negative log-transformed, read-out: Rel pIC50 (converted)) [nM] | % Inhibition ([1]; antagonist mode, maximal inhibition of EC90 agonist response) [%] | Effect on d-amphetamine-induced arousal ([2]; BuTAC 0.001 mg/kg s.c., at 60 min) | Effect on amphetamine-induced stereotypies [2, 3] | Effect on amphetamine-induced unrest [2, 3] | Effect on amphetamine-induced stereotypies [2, 4] | Effect on amphetamine-induced unrest [2, 4] | Effect on d-amphetamine-induced arousal ([2]; BuTAC 0.003 and 0.01 mg/kg s.c., at 60, 120 and 180 min)
CCCSc1nsnc1[C@H]1CN2CCC[C@H]1C2 [PTAC, (5R,6R) 6-(3-propylthio-1,2,5-thiadiazol-4-yl)-1-azabicyclo-[3.2.1]-octane] | 15.5 | 15.4 ± 2.73 | 107 | 87.3 ± 7.07 | – | – | – | – | – | –
CCCCSc1nsnc1[C@H]1CN2CCC[C@H]1C2 [BuTAC, (5R,6R)-6-(3-butylthio-1,2,5-thiadiazol-4-yl)-1-azabicyclo[3.2.1]octane] | – | – | – | – | counteracted | significantly reduced | significantly counteracted | significantly reduced | significantly counteracted | counteracted
